Values of other authors as cited in patent publication US20090238905A1, “INFLAMMATION REDUCING ACTION OF SYNERGISTIC MIXTURES OF BISABOLOL AND GINGER EXTRACTS” (SYMRISE, Inc., priority 2008, published 2009).

Structure (SMILES)	IL-1α inhibition (IL-1α)	LTB4 inhibition (LTB4)	PGE2 inhibition (PGE2)	inhibition of activation of TNF-α (TNF-α)	inhibition of COX-2 expression (COX-2)	inhibition of PGE2 production (HL-60 cells)
CC(C)=CCC[C@](C)(O)C1CC=C(C)CC1 (stereo partly shown) [Bisabolol, bisabolol]	very effective	very effective	not as a PGE2 inhibitor	–	–	–
CCCCC[C@H](O)CC(=O)CCc1ccc(O)c(OC)c1 [Gingerol]	did not have an effect	–	–	inhibit activation of TNF-α	inhibit	inhibit PGE2 production
